Structures are written as SMILES.

This is an account of results in US20070275968A1, “Substituted Biphenyl Derivative” (priority 2004, published 2007).

One may read the melting point as the temperature, or range, at which the solid turns liquid. `Cc1ccc(-c2cccc(-c3nc(C(C)C)[nH]c3-c3cccc(C)n3)c2)cc1` [Example 3, 2-[2-Isopropyl-4-(4′-methyl-1,1′-biphenyl-3-yl)-1H-imidazol-5-yl]-6-methylpyridine] came in with a melting point of 76 to 79 °C.
In turn, `COc1ccc(-c2cccc(-c3nc(C(C)C)[nH]c3-c3cccc(C)n3)c2)cc1` [Example 4, 2-[2-Isopropyl-4-(4′-methoxy-1,1′-biphenyl-3-yl)-1H-imidazol-5-yl]-6-methylpyridine] displayed a melting point of 75 to 77 °C.
With `Cc1cccc(-c2[nH]c(C(C)C)nc2-c2cccc(-c3ccc(C(F)(F)F)cc3)c2)n1` [Example 5, 2-{2-Isopropyl-4-[4′-(trifluoromethyl)-1,1′-biphenyl-3-yl]-1H-imidazol-5-yl}-6-methylpyridine], the melting point was 91 to 93 °C.
On to `Cc1cccc(-c2[nH]c(C(C)C)nc2-c2cccc(-c3ccccc3F)c2)n1` [Example 6, 2-[4-(2′-Fluoro-1,1′-biphenyl-3-yl)-2-isopropyl-1H-imidazol-5-yl]-6-methylpyridine], for which the melting point fell in the range of 153 to 155 °C.
Regarding `Cc1cccc(-c2[nH]c(C(C)C)nc2-c2cccc(-c3cccc(F)c3)c2)n1` [Example 7, 2-[4-(3′-Fluoro-1,1′-biphenyl-3-yl)-2-isopropyl-1H-imidazol-5-yl]-6-methylpyridine], the melting point was 140 to 142 °C.
`Cc1cccc(-c2[nH]c(C(C)C)nc2-c2cccc(-c3ccc(F)cc3)c2)n1` [Example 8, 2-[4-(4′-Fluoro-1,1′-biphenyl-3-yl)-2-isopropyl-1H-imidazol-5-yl]-6-methylpyridine] yielded a melting point of 83 to 85 °C.
With `Cc1cccc(-c2[nH]c(C(C)C)nc2-c2cccc(-c3ccc(F)cc3F)c2)n1` [Example 9, 2-[4-(2′,4′-Difluoro-1,1′-biphenyl-3-yl)-2-isopropyl-1H-imidazol-5-yl]-6-methylpyridine], the melting point fell in the range of 70 to 72 °C.
As to `Cc1cccc(-c2[nH]c(C(C)C)nc2-c2cccc(-c3ccc(OC(F)(F)F)cc3)c2)n1` [Example 10, 2-{2-Isopropyl-4-[4′-(trifluoromethoxy)-1,1′-biphenyl-3-yl]-1H-imidazol-5-yl}-6-methylpyridine], the melting point was 120 to 122 °C.
The value for `Cc1cccc(-c2[nH]c(C(C)C)nc2-c2cccc(-c3cccnc3)c2)n1` [Example 11, 2-[2-Isopropyl-4-(3-pyridin-3-ylphenyl)-1H-imidazol-5-yl]-6-methylpyridine] was 74 to 77 °C; that for `Cc1cccc(-c2[nH]c(C(C)C)nc2-c2cccc(-c3ccncc3)c2)n1` [Example 12, 2-[2-Isopropyl-4-(3-pyridin-4-ylphenyl)-1H-imidazol-5-yl]-6-methylpyridine] was 84 to 86 °C; that for `COc1ccc(-c2cccc(-c3nc(C(C)C)[nH]c3-c3cccc(C)n3)c2)cn1` [Example 13, 5-{3-[2-Isopropyl-5-(6-methylpyridin-2-yl)-1H-imidazol-4-yl]phenyl}-2-methoxypyridine] was 72 to 74 °C.
Consider `Cc1cccc(-c2[nH]c(C(C)C)nc2-c2cccc(-c3ccsc3)c2)n1` [Example 14, 2-[2-Isopropyl-4-(3-thien-3-ylphenyl)-1H-imidazol-5-yl]-6-methylpyridine], for which the melting point lay in the range of 83 to 85 °C.
The compound `Cc1cccc(-c2[nH]c(C(C)C)nc2-c2cccc(-c3ccc(NS(C)(=O)=O)cc3)c2)n1` [Example 15, N-{3′-[2-Isopropyl-5-(6-methylpyridin-2-yl)-1H-imidazol-4-yl]-1,1′-biphenyl-4-yl}methanesulfonamide] showed a melting point of 128 to 130 °C.
The value for `CSc1ccc(-c2cccc(-c3nc(C(C)C)[nH]c3-c3cccc(C)n3)c2)cc1` [Example 16, 2-{2-Isopropyl-4-[4′-(methylthio)-1,1′-biphenyl-3-yl]-1H-imidazol-5-yl}-6-methylpyridine] was 80 to 82 °C.
The value for `Cc1cccc(-c2[nH]c(C(C)C)nc2-c2cccc(-c3cccc(S(C)(=O)=O)c3)c2)n1` [Example 18, 2-{2-Isopropyl-4-[3′-(methylsulfonyl)-1,1′-biphenyl-3-yl]-1H-imidazol-5-yl}-6-methylpyridine] was 97 to 100 °C; that for `Cc1cccc(-c2[nH]c(C(C)C)nc2-c2cccc(-c3cccc(NS(C)(=O)=O)c3)c2)n1` [Example 19, N-{3′-[2-Isopropyl-5-(6-methylpyridin-2-yl)-1H-imidazol-4-yl]-1,1′-biphenyl-3-yl}methanesulfonamide] was 108 to 112 °C.
Take `Cc1cccc(-c2[nH]c(C(C)C)nc2-c2cccc(-c3cccs3)c2)n1` [Example 20, 2-[2-Isopropyl-4-(3-thien-2-ylphenyl)-1H-imidazol-5-yl]-6-methylpyridine]: the melting point was 73 to 76 °C.
Consider `Cc1cccc(-c2[nH]c(C(C)C)nc2-c2cccc(-c3ccoc3)c2)n1` [Example 21, 2-{4-[3-(3-Furyl)phenyl]-2-isopropyl-1H-imidazol-5-yl}-6-methylpyridine], for which the melting point was in the range of 74 to 78 °C.
The value for `Cc1cccc(-c2[nH]c(C(C)C)nc2-c2cccc(-c3ccc[nH]3)c2)n1` [Example 23, 2-{2-Isopropyl-4-[3-(1H-pyrrol-2-yl)phenyl]-1H-imidazol-5-yl}-6-methylpyridine] was 103 to 107 °C.
The compound `CC(=O)c1ccc(-c2cccc(-c3nc(C(C)C)[nH]c3-c3cccc(C)n3)c2)cc1` [Example 24, 1-{3′-[2-Isopropyl-5-(6-methylpyridin-2-yl)-1H-imidazol-4-yl]-1,1′-biphenyl-4-yl}ethanone] registered a melting point of 84 to 87 °C.
In the case of `CCS(=O)(=O)c1ccc(-c2cccc(-c3nc(C(C)C)[nH]c3-c3cccc(C)n3)c2)cc1` [Example 25, 2-{2-Isopropyl-4-[4′-(ethylsulfonyl)-1,1′-biphenyl-3-yl]-1H-imidazol-5-yl}-6-methylpyridine], the melting point lay in the range of 103 to 116 °C.
Compound `Cc1cccc(-c2[nH]c(C(C)C)nc2-c2cccc(-c3ccc([N+](=O)[O-])cc3)c2)n1` [Example 27, 2-[2-Isopropyl-4-(4′-nitro-1,1′-biphenyl-3-yl)-1H-imidazol-5-yl]-6-methylpyridine] showed a melting point of 95 to 105 °C.
`Cc1cccc(-c2[nH]c(C(C)C)nc2-c2cccc(-c3ccc(N)cc3)c2)n1` [Example 28, 2-[2-Isopropyl-4-(4′-amino-1,1′-biphenyl-3-yl)-1H-imidazol-5-yl]-6-methylpyridine] came in with a melting point of 107 to 117 °C.
For `Cc1cccc(-c2[nH]c(C(C)C)nc2-c2cccc(-c3ccc(CN)cc3)c2)n1` [Example 29, 1-{3′-[2-Isopropyl-5-(6-methylpyridin-2-yl)-1H-imidazol-4-yl]-1,1′-biphenyl-4-yl}methanamine], the melting point is 113 to 123 °C (dec.).
The value for `CCS(=O)(=O)Nc1ccc(-c2cccc(-c3nc(C(C)C)[nH]c3-c3cccc(C)n3)c2)cc1` [Example 30, N-{3′-[2-Isopropyl-5-(6-methylpyridin-2-yl)-1H-imidazol-4-yl]-1,1′-biphenyl-4-yl}ethanesulfonamide] was 123 to 135 °C; that for `Cc1cccc(-c2[nH]c(C(C)C)nc2-c2cccc(-c3ccc(NS(=O)(=O)C4CC4)cc3)c2)n1` [Example 31, N-{3′-[2-Isopropyl-5-(6-methylpyridin-2-yl)-1H-imidazol-4-yl]-1,1′-biphenyl-4-yl}cyclopropylsulfonamide] was 135 to 145 °C; that for `CC(=O)Nc1ccc(-c2cccc(-c3nc(C(C)C)[nH]c3-c3cccc(C)n3)c2)cc1` [Example 32, N-{3′-[2-Isopropyl-5-(6-methylpyridin-2-yl)-1H-imidazol-4-yl]-1,1′-biphenyl-4-yl}acetamide] was 140 to 145 °C.
The value for `Cc1cccc(-c2[nH]c(C(C)C)nc2-c2cccc(-c3ccc(NC(=O)C(C)(C)O)cc3)c2)n1` [Example 34, 2-Hydroxy-N-{3′-[2-isopropyl-5-(6-methylpyridin-2-yl)-1H-imidazol-4-yl]-1,1′-biphenyl-4-yl}-2-methylpropanamide] was 123 to 135 °C; that for `Cc1cccc(-c2[nH]c(C(C)C)nc2-c2cccc(-c3ccc(C(N)=O)cn3)c2)n1` [Example 36, 6-{3-[2-Isopropyl-5-(6-methylpyridin-2-yl)-1H-imidazol-4-yl]phenyl}nicotinamide] was 138 to 144 °C.
Compound `Cc1cccc(-c2nc(C(C)C)[nH]c2-c2cccc(-c3ccc(S(N)(=O)=O)cc3)c2)n1` [Example 37, 3′-[2-Isopropyl-4-(6-methylpyridin-2-yl)-1H-imidazol-5-yl]-1,1′-biphenyl-4-sulfonamide] displayed a melting point of 255 to 258 °C.
Compound `CNS(=O)(=O)c1ccc(-c2cccc(-c3nc(C(C)C)[nH]c3-c3cccc(C)n3)c2)cc1` [Example 38, 3′-[2-Isopropyl-5-(6-methylpyridin-2-yl)-1H-imidazol-4-yl]-N-methyl-1,1′-biphenyl-4-sulfonamide] returned a melting point of 96 to 100 °C.
The value for `Cc1cccc(-c2[nH]c(C(C)C)nc2-c2cccc(-c3ccc(S(=O)(=O)N(C)C)cc3)c2)n1` [Example 39, 3′-[2-Isopropyl-5-(6-methylpyridin-2-yl)-1H-imidazol-4-yl]-N,N-dimethyl-1,1′-biphenyl-4-sulfonamide] was 93 to 96 °C.
As to `Cc1cccc(-c2[nH]c(C(C)C)nc2-c2cccc(-c3ccc(S(=O)(=O)N4CCOCC4)cc3)c2)n1` [Example 40, 4-({3′-[2-Isopropyl-5-(6-methylpyridin-2-yl)-1H-imidazol-4-yl]-1,1′-biphenyl-4-yl}sulfonyl)morpholine], the melting point was 88 to 92 °C.
Consider `Cc1cccc(-c2[nH]c(C(C)C)nc2-c2cccc(-c3ccc(S(=O)(=O)N4CCN(C)CC4)cc3)c2)n1` [Example 41, 1-({3′-[2-Isopropyl-5-(6-methylpyridin-2-yl)-1H-imidazol-4-yl]-1,1′-biphenyl-4-yl}sulfonyl)-4-methylpiperazine], for which the melting point was in the range of 110 to 116 °C.
The value for `Cc1cccc(-c2[nH]c(C(C)C)nc2-c2cccc(-c3cccc(S(N)(=O)=O)c3)c2)n1` [Example 42, 3′-[2-Isopropyl-5-(6-methylpyridin-2-yl)-1H-imidazol-4-yl]-1,1′-biphenyl-3-sulfonamide] was 123 to 126 °C.
